Patent US20020176889A1 (priority 2000, published 2002)
Structures can show the parent of a compound that is named as a salt.

Experiment: pH of saturated aqueous solution
Type: physicochemical
Text: The pH of the composition can be controlled or adjusted by the proper selection of excipients. It should be borne in mind that amlodipine maleate is slightly acidic. […] An example of a pH-inert excipient is microcrystalline cellulose.

In the case of `CCOC(=O)C1=C(COCCN)NC(C)=C(C(=O)OC)C1c1ccccc1Cl` (stereo not shown) [amlodipine maleate], the “pH as a saturated aqueous solution” value is reported as “about 4.8”.
